Results on nine compounds are retold here after patent US6958345B2, “2-hydroxymethylcyclopropylidene methylpurines and -pyrimidines as antiviral agents” (The Regents of the University of Michigan, priority 1997, dated 2005).

Read-outs that look alike come from different tables or passages of the source.

Series [1] concerns HCMV. The experiment in a line: HCMV plaque reduction assay in HFF cells. The series is classed as cell-based, Human CMV (HCMV). As to conditions: HFF cells, plaque reduction. The procedure:
(§1) Cells and viruses. The routine growth and passage of KB cells was performed in monolayer cultures using minimal essential medium (MEM) with either Hanks salts [MEM(H)] or Earle salts [MEM(E)] supplemented with 10% calf serum. The sodium bicarbonate concentration was varied to meet the buffering capacity required. Cultures of diploid human foreskin fibroblasts (HFF) or MRC-5 cells were grown in medium consisting of MEM(E) with 10% fetal bovine serum. Cells were passaged at 1:2 to 1:10 dilutions according to conventional procedures by using 0.05% trypsin plus 0.02% EDTA in a HEPES buffered salt solution (HBS) (Shipman, C., Jr., Proc. Soc. Exp. Biol. 130:305-310 (1969)) as described previously. Turk, S. R., et al., Antimicrob. Agents Chemother. 31:544-550 (1987). HFF and MRC-5 cells were passaged only at 1:2 dilutions. CEM cells were maintained in suspension culture as detailed previously. Kucera, L. S., et al., AIDS Res. Human Retroviruses 9:307-314 (1993).
(§2) Virological procedures. Stock HCMV was prepared by infecting HFF cells at a multiplicity of infection (m.o.i.) of <0.01 plaque-forming units (p.f.u.) per cell. Cell growth medium was changed every four days until cytopathology was evident in all cells (approximately 21 days). Supernatant fluids were retained as the virus stock. High titer HSV-1 stocks were prepared by infecting KB cells at an m.o.i. of <0.1 as detailed previously. Turk, S. R., et al., Antimicrob. Agents Chemother. 31:544-550 (1987). Virus titers were determined using monolayer cultures of HFF cells for HCMV and monolayer cultures of BSC-1 cells for HSV-1 as described earlier. Prichard, M. N., et al., J. Virol. Methods 28:101-106 (1990). Briefly, HFF or BSC-1 cells were planted as described above in 96-well cluster dishes and incubated overnight at 37° C. in a humidified 3% CO297% air atmosphere. The next day cultures were inoculated with HCMV or HSV-1 and serially diluted 1:3 across the remaining eleven columns of the 96-well plate. Cultures were incubated at 37° C. for 2 hr to permit virus adsorption and then virus inoculum was replaced with 0.2 mL of fresh medium. Cultures were incubated for seven days for HCMV, two or three days for HSV-1, medium was removed, and the cell sheets were stained with 0.1% crystal violet in 20% methanol. Plaques were enumerated under 20-fold magnification in wells having the dilution which gave 5 to 20 plaques per well. Virus titers were calculated according to the following Formula: Titer (p.f.u./mL)=number of plaques×5×3^n; where n represents the nth dilution of the virus used to infect the well in which plaques were enumerated.
(a) HCMV. The effect of compounds on the replication of HCMV has been measured using a plaque reduction assay. HFF cells in 24-well cluster dishes were infected with approximately 100 p.f.u. of HCMV per cm^2 cell sheet using the procedures detailed above. Following virus adsorption, compounds dissolved in growth medium were added to duplicate wells in three to six selected concentrations. Following incubation at 37° C. for 7 to 10 days, cell sheets were fixed, stained with crystal violet and microscopic plaques enumerated as described above. Drug effects were calculated as a percentage of reduction in number of plaques in the presence of each drug concentration compared to the number observed in the absence of drug. Ganciclovir (DHPG) was used as a positive control in all experiments.
(§3) Data Analysis. Dose-response relationships were constructed by linearly regressing the percent inhibition of parameters derived in the preceding sections against log drug concentrations. Fifty-percent inhibitory (IC50) concentrations were calculated from the regression lines. Samples containing positive controls (acyclovir for HSV-1, ganciclovir for HCMV, and 2-acetylpyridine thiosemicarbazone for cytotoxicity) were used in all assays.

A further series deals with HFF cells. Description: Cytotoxicity in stationary HFF cells, microscopic inspection. The series is classed as cell-based, human. The procedure: as §1
(§4) Cytotoxicity assays. Two different assays were used to explore cytotoxicity of selected compounds as we have detailed previously. (i) Cytotoxicity produced in stationary HFF cells and in growing CEM cells was determined by microscopic inspection of cells used in plaque and RT assays which were not affected by the virus. Turk, S. R., et al., Antimicrob. Agents Chemother. 31:544-550 (1987). (ii) The effect of compounds during two population doublings of KB cells was determined by crystal violet staining and spectrophotometric quantitation of dye eluted from stained cells. Prichard, M. N., et al., Antimicrob. Agents Chemother. 35:1060-1065 (1991).
as §3

Series [2] deals with HCMV. The experiment in a line: HCMV yield reduction assay in HFF cells. It is filed as cell-based, Human CMV (HCMV). As to conditions: footnote says IC90. The procedure: as §2
The effect of compounds on the replication of HCMV also was measured using a yield reduction assay. HFF cells were planted as described above in 96-well cluster dishes, incubated overnight, medium removed and the cultures were inoculated with HCMV at a m.o.i. of 0.5 to 1 p.f.u. per cell as reported elsewhere. After virus adsorption, inoculum was replaced with 0.2 mL of fresh medium containing test compounds. The first row of 12 wells was left undisturbed and served as virus controls. Each well in the second row received an additional 0.1 mL of medium with test compound at three times the desired final concentration. The contents of the 12 wells were mixed by repeated pipetting and then serially diluted 1:3 along the remaining wells. In this manner, six compounds could be tested in duplicate on a single plate with concentrations from 100 μM to 0.14 μM. Plates were incubated at 37° C. for seven days, subjected to one cycle of freezing and thawing; aliquots from each of the eight wells of a given column were transferred to the first column of a fresh 96-well monolayer culture of HFF cells. Contents were mixed and serially diluted 1:3 across the remaining eleven columns of the secondary plate. Each column of the original primary plate was diluted across a separate plate in this manner. Cultures were incubated, plaques were enumerated, and titers calculated as described above.
as §3

The next series deals with HIV-1. Description: HIV-1 reverse transcriptase assay in infected CEM cells. The series is classed as cell-based, strain IIIB of HIV-1. The procedure: (d) HIV-1. Reverse transcriptase (RT) was employed as a marker for HIV-1. This assay measured the presence of HIV in supernatants of CEM cells infected with strain IIIB of HIV-1 by the amount of RT activity. Cells were grown, infected, and incubated in the presence of seven concentrations (one-half log10 dilutions) beginning at 1 or 100 μM of compounds to be assayed. Procedures and the RT assay were performed as detailed previously. Kucera, L. S., et al., AIDS Res. Human Retroviruses 9:307-314 (1993); White, E. L., et al., Antiviral Res. 16:257-266 (1991).

In another series the test system is CEM cells. The experiment in a line: Cytotoxicity in growing CEM cells, microscopic inspection. It is filed as cell-based. The procedure: as §1, §4, §3
For another series, the system named is KB cells. The experiment in a line: Cytotoxicity in KB cells, growth over two population doublings. The series is classed as cell-based. The procedure: as §1, §4, §3
A short description of series [3]: Toxicity controls: uninfected mice given test compound. It is filed as in vivo. The conditions noted are these: 5.6, 16.7 and 50 mg/kg i.p. once daily for five days. The procedure:
(§5) Compounds 1 (B=adenin-N^9-yl and guanin-N^9-yl) were evaluated in mice infected with murine cytomegalovirus (MCMV). Mice were infected intraperitonealy with sufficient MCMV to produce 90 to 100% mortality. Compounds were administered once daily for five days at doses of 5.6, 16.7 and 50 mg/kg by intraperitoneal injection in a 0.4% suspension of carboxymethylcellulose. Ganciclovir was administered in sterile water at the same doses as a positive control drug. All compounds were administered to separate groups of 15 mice each at 6, 24, and 48 hours after infection with MCMV. Groups of 10 uninfected mice also received test compounds as toxicity controls at the doses listed above.

A further series deals with HSV-1. The experiment in a line: HSV-1 ELISA in BSC-1 cells. It is filed as cell-based, herpes simplex 1 (HSV-1). The conditions noted are these: ELISA. The procedure: as §2
(b) HSV-1. An enzyme-linked immunosorbent assay (ELISA) was employed to detect HSV-1. 96-well cluster dishes were planted with BSC-1 cells at 10,000 cells per well, in a total volume of 200 μL per well of MEM(E) plus 10% calf serum. After overnight incubation at 37° C., drug and HSV-1 was added at the rate of 100 PFU/well. ELISA plates were blocked with 200 μL per well of 10% calf serum and 0.05% tween in HBS. After incubation for 30 minutes, the blocking agent was rinsed two times with HBS-T. A 1:400 dilution of AP conjugated rabbit anti-HSV-1 antibody in HBS-F was added. Plates were sealed with adhesive sheet, and incubated on rocker for one hour at 37° C. Plates were developed in the dark with 100 μL per well of substrate solution containing p-nitrophenyl phosphate. Plates were read at […]. Drug effects were calculated as a percentage of the reduction in virus in the presence of each drug concentration compared to the titer obtained in the absence of drug. Acyclovir was used as a positive control in all experiments.
as §3
(In general: An ELISA detects its analyte on a solid surface through an enzyme-linked reagent.)

The test system of series [4] is murine cytomegalovirus (MCMV). The experiment in a line: Mortality of mice infected with murine cytomegalovirus. It is filed as in vivo. The conditions noted are these: 5.6 mg/kg. The procedure: as §5
The mark [5] stands for this setting: reverse transcriptase assay, CEM cells, low moi (footnote c of the 5th table), read-out: HIV-1, IC50.
Where [6] appears, read: Example 26, high multiplicity of infection (moi), read-out: HIV-1 IC50, reverse transcriptase assay.

By IC50 is commonly meant the concentration that inhibits the measured activity by half. A word on the IC90: it is the point of the concentration-response curve where the effect stands at 90%. A high value points to weaker potency. Take `Nc1nc2c(ncn2C=C2CC2CO)c(=O)[nH]1` (stereo not drawn) [1 (B = guanine), Example 8, syn-N^9-(2-hydroxymethylcyclopropylidenemethyl)guanine]: the IC50 in the series with HCMV [1] is 2 µM; with HFF cells it was more than 100 µM; in the series on HIV-1 (setting [5]), 1.3 µM; in the series with CEM cells, more than 100 µM; in the series on KB cells, more than 100 µM. In addition, the IC90 in the series on HCMV [2] was 1.8 µM. For the same compound, in series [3], the “deaths in uninfected mice that received only drug” value was “No deaths were observed”.
Take `Nc1nc(N)c2ncn(C=C3CC3CO)c2n1` (stereo not drawn) [1 (B = 2,6-diaminopurine), Example 9, syn-2,6-Diamino-N^9-(2-hydroxymethylcyclopropylidenemethyl)purine]: the IC50 was more than 100 µM with HSV-1 (BSC-1 cells); 15 µM in the series on HCMV [1]; more than 100 µM in the series on HFF cells; more than 100 µM in the series with CEM cells; more than 100 µM with KB cells. Also, in the series on HCMV [2], the IC90 was 18 µM.
For `Nc1nc(O)c2ncn(COC(CO)CO)c2n1` [ganciclovir, reference compound], the “efficacy against MCMV mortality compared with compound 1 (B=guanin-N^9-yl)” value in [4] is reported as “somewhat more effective”.
`COC(=O)[C@H](C)NP(=O)(OCC1CC1=Cn1cnc2c(N)ncnc21)Oc1ccccc1` (stereo partly drawn) [3 (B = adenine), Example 13, Methyl Phenylphosphoro-L-alaninate of syn-N^9-(2-Hydroxymethylcyclopropylidenemethyl)adenine]: the IC50 was 2.5 µM in the series with HSV-1 (BSC-1 cells); 0.14 µM in the series with HCMV [1]; 2.5 µM in the series with HFF cells (stationary HFF cells, visual, read-out: Cytotoxicity IC50 HFF (visual)); less than 0.14 µM in the series with HIV-1 (setting [5]); 1.1 µM with CEM cells (growing CEM cells, visual, read-out: Cytotoxicity IC50 CEM (visual)); 0.5 µM in the series with KB cells (KB cell growth, read-out: Cytotoxicity IC50 KB (growth)). In addition, in the series on HCMV [2], it took 0.21 µM to reach the 90% level (IC90).
For `Nc1nc(Cl)c2ncn(C=C3CC3CO)c2n1` (stereo not drawn) [syn-2-amino-6-chloro-N^9-(2-hydroxymethylcyclopropylidenemethyl)purine], the IC50 was 40 µM with HSV-1 (BSC-1 cells), 5 µM with HCMV [1], more than 100 µM with HFF cells and more than 100 µM in the series with KB cells. The compound also gave an IC90 in the series on HCMV [2] of 0.8 µM.
Consider `Nc1ccn(C=C2CC2CO)c(=O)n1` (stereo not drawn) [1 (B = cytosine), Example 12, syn-N^1-(2-Hydroxymethylcyclopropylidenemethyl)cytosine], for which the IC50 in the series with HSV-1 (BSC-1 cells) was more than 100 µM; in the series with HCMV [1] it was 28 µM; in the series on HFF cells, more than 100 µM; in the series with CEM cells, more than 100 µM; with KB cells, more than 100 µM. Besides, it took 16 µM to reach the 90% level in the series with HCMV [2] (IC90).
Consider `Nc1ncnc2c1ncn2/C=C1/C[C@@H]1CO` [S-1 (B = adenine), Example 24, (S)-(+)-Synadenol], for which the IC50 in the series with HSV-1 (Example 26) is 8.8 µM; in the series with HCMV [1] (Example 26), 2.4 µM; in the series on HFF cells, 100 µM; in the series on HIV-1 (setting [6]), 1.2 µM; with CEM cells it was more than 100 µM; with KB cells, 80 µM.
Consider `Nc1nc(NC2CC2)c2ncn(C=C3CC3CO)c2n1` (stereo not drawn) [syn-2-Amino-6-cyclopropylamino-N^9-(2-hydroxymethylcyclopropylidenemethyl)purine], for which the IC50 is 20 µM with HSV-1 (BSC-1 cells); 0.4 µM in the series with HCMV [1]; more than 100 µM with HFF cells; more than 100 µM in the series with CEM cells; more than 100 µM in the series with KB cells. The IC90 in the series on HCMV [2] was 1 µM.
On to `Nc1ncnc2c1ncn2/C=C1/C[C@H]1CO` [R-1 (B = adenine), Example 23, (R)-(−)-Synadenol], for which the IC50 in the series with HSV-1 (Example 26) is 38 µM; in the series on HCMV [1] (Example 26) it was 2.9 µM; in the series with HFF cells, more than 100 µM; with HIV-1 (setting [6]), 7 µM; in the series with CEM cells, more than 100 µM; in the series with KB cells, more than 100 µM.
